13 compounds from patent US20230234942A1, “COMPOUNDS FOR TREATING HUNTINGTON'S DISEASE” (PTC Therapeutics, Inc., priority 2020, published 2023) can be followed below.

The structures appear in SMILES notation.

One assay concerns Endogenous Huntingtin Protein. Description: Endogenous Huntingtin Protein Assay (ELISA-based MSD electrochemiluminescence). It counts as cell-based. The note with it: Table 2; MSD plates coated with MW1 (expanded polyglutamine) or MAB2166 capture antibody; "inactive" = result above the detection limit of the assay. As to the method: Compounds of Formula (I) were tested using the Meso Scale Discovery (MSD) Assay provided in International Application No. PCT/US2016/066042, filed on Dec. 11, 2016 and claiming priority to U.S. Provisional Application 62/265,652 filed on Dec. 10, 2015, the entire contents of which are incorporated herein by reference.
The Endogenous Huntingtin Protein assay used in Biological Example 1 was developed using the ELISA-based MSD electrochemiluminescence assay platform.
Meso Scale Discovery (MSD) 96-well or 384-well plates were coated overnight at 4° C. with MW1 (expanded polyglutamine) or MAB2166 monoclonal antibody (for capture) at a concentration of 1 μg/mL in PBS (30 μL per well). Plates were then washed three times with 300 μL wash buffer (0.05% Tween-20 in PBS) and blocked (100 μL blocking buffer; 5% BSA in PBS) for 4-5 hours at room temperature with rotational shaking and then washed three times with wash buffer.
Samples (25 μL) were transferred to the antibody-coated MSD plate and incubated overnight at 4° C. After removal of the lysates, the plate was washed three times with wash buffer, and 25 μL of #56565 (Cell signaling; rabbit monoclonal) secondary antibody (diluted to 0.25 μg/mL in 0.05% Tween-20 in blocking buffer) was added to each well and incubated with shaking for 1 Hour at room temperature. Following incubation with the secondary antibody, the wells were rinsed with wash buffer after which 25 μL of goat anti-rabbit SULFO TAG secondary detection antibody (required aspect of the MSD system) (diluted to 0.25 μg/mL in 0.05% Tween-20 in blocking buffer) was added to each well and incubated with shaking for 1 hour at room temperature. After rinsing three times with wash buffer, 150 μL of read buffer T with surfactant (MSD) were added to each empty well, and the plate was imaged on a SI 6000 imager (MSD) according to manufacturers' instructions provided for 96- or 384-well plates.
In general terms: ELISA stands for enzyme-linked immunosorbent assay.
In general, IC50 refers to the concentration needed to halve the response being measured. A higher IC50 goes with a need for much substance. `Cc1cn2nc(-c3ccc(-c4cnc(N5CCN(C)CC5)nn4)c(O)c3)cc(C)c2n1` [Cpd 104, 5-(2,8-dimethylimidazo[1,2-b]pyridazin-6-yl)-2-[3-(4-methylpiperazin-1-yl)-1,2,4-triazin-6-yl]phenol] came in with an IC50 of 14.6 nM. This counts as double-digit nanomolar.

In the case of `C[C@H]1CN(c2ncc(-c3ccc(-c4cn[nH]c4F)cc3O)nn2)C[C@@H](C2CC2)N1` [Cpd 215, 2-{3-[(3R,5S)-3-cyclopropyl-5-methylpiperazin-1-yl]-1,2,4-triazin-6-yl}-5-(5-fluoro-1H-pyrazol-4-yl)phenol], the midpoint of inhibition, the IC50, lay at 114 nM.

`Cn1nnc2ncc(-c3ccc(-c4cnc(N5CCN[C@@H](C6CC6)C5)nn4)c(O)c3)cc21` [Cpd 169, 2-{3-[(3S)-3-cyclopropylpiperazin-1-yl]-1,2,4-triazin-6-yl}-5-(1-methyl-1H-[1,2,3]triazolo[4,5-b]pyridin-6-yl)phenol] registered an IC50 of 355 nM.

As to `Oc1cc(-c2cn[nH]c2)ccc1-c1cnc(N2CCNC(C3CC3)C2)nn1` (stereo not shown) [Cpd 5, 2-[3-(3-cyclopropylpiperazin-1-yl)-1,2,4-triazin-6-yl]-5-(1H-pyrazol-4-yl)phenol], the half-inhibitory concentration (IC50) was 6 nM.

In turn, `Oc1cc(-c2cnn3c2CCCC3)ccc1-c1cnc(N2CCNC(C3CC3)C2)nn1` (single isomer, unassigned) [Cpd 277, 2-{3-[(3S)-3-cyclopropylpiperazin-1-yl]-1,2,4-triazin-6-yl}-5-(4,5,6,7-tetrahydropyrazolo[1,5-a]pyridin-3-yl)phenol or 2-{3-[(3R)-3-cyclopropylpiperazin-1-yl]-1,2,4-triazin-6-yl}-5-(4,5,6,7-tetrahydropyrazolo[1,5-a]pyridin-3-yl)phenol] came in with an IC50 of 24.8 nM.

In turn, `C[C@@H]1CN(c2ncc(-c3ccc(-c4cn[nH]c4)cc3O)nn2)CCN1` [Cpd 166, 2-{3-[(3R)-3-methylpiperazin-1-yl]-1,2,4-triazin-6-yl}-5-(1H-pyrazol-4-yl)phenol] displayed an IC50 of 192 nM.

Take `Oc1cc(-c2cn[nH]c2)ccc1-c1cnc(N2CCN3CCOCC3C2)nn1` (stereo not drawn) [Cpd 64, 2-[3-(hexahydropyrazino[2,l-c][1,4]oxazin-8(1H)-yl)-1,2,4-triazin-6-yl]-5-(1H-pyrazol-4-yl)phenol]: the “IC50 (nM)” value is “inactive”.

The compound `C=CC1CN(c2ncc(-c3ccc(-c4cn[nH]c4)cc3O)nn2)CCN1` (stereo not shown) [Cpd 38, 2-[3-(3-ethenylpiperazin-1-yl)-1,2,4-triazin-6-yl]-5-(1H-pyrazol-4-yl)phenol] displayed an IC50 of 56.2 nM.

In turn, `CC(C)[C@H]1CN(c2ncc(-c3ccc(-c4cn[nH]c4F)cc3O)nn2)C[C@@H](C)N1` [Cpd 222, 5-(5-fluoro-1H-pyrazol-4-yl)-2-{3-[(3R,5S)-3-methyl-5-(propan-2-yl)piperazin-1-yl]-1,2,4-triazin-6-yl]phenol] registered an IC50 of 9.4 nM. Compared with the last compound, the IC50 is about 6-fold lower.

`CN1CCN(c2ncc(-c3ccc(-c4cnc5nn(C)cc5c4)cc3O)nn2)CC1` [Cpd 110, 2-[3-(4-methylpiperazin-1-yl)-1,2,4-triazin-6-yl]-5-(2-methyl-2H-pyrazolo[3,4-b]pyridin-5-yl)phenol] gave an IC50 of 24.9 nM.

Regarding `CC(C)(O)[C@H]1CN(c2ncc(-c3ccc(-c4c[nH]nc4F)cc3O)nn2)CCN1` [Cpd 25, 5-(3-fluoro-1H-pyrazol-4-yl)-2-{3-[(3R)-3-(2-hydroxypropan-2-yl)piperazin-1-yl]-1,2,4-triazin-6-yl]phenol], the IC50 turned out to be 24.6 nM. This IC50 and that of the compound before are within 1.5-fold of each other.

In turn, `Cc1nc2c(C)nc(-c3ccc(-c4cnc(N5CCN[C@@H](C(C)C)C5)nn4)c(O)c3)cn2n1` [Cpd 78, 5-(2,8-dimethyl[1,2,4]triazolo[1,5-a]pyrazin-6-yl)-2-{3-[(3S)-3-(propan-2-yl)piperazin-1-yl]-1,2,4-triazin-6-yl}phenol] returned an IC50 of 5.1 nM. Compared with the last compound, the IC50 is about 4.8-fold lower.

Still in this assay, the particulars now being: Table 3; selected compounds from WO/2019/191229 A1, same MSD assay.
`Oc1cc(-c2cn[nH]c2)ccc1-c1cnc(N2CCNCC2)nn1` [WO/2019/191229 A1 Cpd 328, reference compound] registered an IC50 of 106 nM.
